Series [1] deals with T1, Fructose-1,6-bisphosphatase 1 (Homo sapiens, UniProt P09467).
T1 sequence (P09467 whole entry): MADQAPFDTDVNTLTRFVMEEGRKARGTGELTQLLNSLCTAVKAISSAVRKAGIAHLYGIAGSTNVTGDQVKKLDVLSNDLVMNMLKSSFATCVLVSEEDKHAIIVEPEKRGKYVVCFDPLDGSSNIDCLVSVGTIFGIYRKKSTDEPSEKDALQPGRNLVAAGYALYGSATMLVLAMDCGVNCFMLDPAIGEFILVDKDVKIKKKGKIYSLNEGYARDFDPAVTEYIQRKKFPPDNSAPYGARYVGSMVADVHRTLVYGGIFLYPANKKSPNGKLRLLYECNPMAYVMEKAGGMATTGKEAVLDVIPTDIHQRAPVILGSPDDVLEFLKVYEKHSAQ
Description: Inhibition of wild-type full-length human liver FBPase expressed in Escherichia coli BL21 (DE3) using FBP as substrate by malachite green dye based assay. Format: tissue-based.

Series [2] concerns Mus musculus. The series is described as follows: Glucose lowering activity in 12 hrs fasting normoglycemic ICR mouse assessed as reduction in blood glucose level at 25 mg/kg, ip measured upto 8 hrs by glucometer. The settings on record: time hrs <=8. It is filed as functional.
For series [3], the system named is Mus musculus. Description: Glucose lowering activity in 12 hrs fasting normoglycemic ICR mouse assessed as time for maximum blood glucose reduction at 25 to 50 mg/kg, ip by glucometer. It is filed as functional. The settings on record: dose 25-50 mg/kg.
In series [4] the test system is HepG2. The series is described as follows: Cytotoxicity against human HepG2 cells assessed as reduction in cell viability measured after 48 hrs by cell counting kit-8 assay. Format: functional, cell-based. The settings on record: HepG2, 48 h.
Series [5] addresses Fructose-1,6-bisphosphatase 1 (Homo sapiens, UniProt P09467, N126A). Description: Covalent inhibition of FBPase N125A mutant (unknown origin) measured upto 45 mins by UV-visible spectrometry analysis.
Series [6] deals with Hepatocyte. The series is described as follows: Cytotoxicity against mouse primary hepatocytes assessed as reduction in cell viability measured after 6 hrs by SRB assay. Format: cell-based. For orientation: Sulforhodamine B stains cellular protein and so reports cell mass.
Series [7] deals with T1, Fructose-1,6-bisphosphatase 1. Description: Covalent inhibition of FBPase WT (unknown origin) measured for 45 mins by UV-visible spectrometry analysis.
The target of series [8] is Fructose-1,6-bisphosphatase 1 (Homo sapiens, UniProt P09467, Y259A). Description: Covalent inhibition of FBPase Y258A mutant (unknown origin) measured upto 45 mins by UV-visible spectrometry analysis.
Chain of Fructose-1,6-bisphosphatase 1 (Homo sapiens, UniProt P09467, Y259A) (P09467 2-338 Y259A limits assumed): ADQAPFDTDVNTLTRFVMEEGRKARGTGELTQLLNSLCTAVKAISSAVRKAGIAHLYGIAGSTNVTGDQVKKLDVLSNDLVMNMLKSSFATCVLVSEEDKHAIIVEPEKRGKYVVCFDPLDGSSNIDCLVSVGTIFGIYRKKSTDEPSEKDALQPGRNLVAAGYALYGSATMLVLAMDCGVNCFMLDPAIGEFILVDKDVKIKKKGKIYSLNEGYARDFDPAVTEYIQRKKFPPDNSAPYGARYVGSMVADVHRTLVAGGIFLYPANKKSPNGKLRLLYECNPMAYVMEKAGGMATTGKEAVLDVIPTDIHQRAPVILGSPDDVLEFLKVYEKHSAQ
Series [9] has as its target Fructose-1,6-bisphosphatase 1 (Homo sapiens, UniProt P09467, R255A). The series is described as follows: Covalent inhibition of FBPase R254A mutant (unknown origin) measured upto 45 mins by UV-visible spectrometry analysis.
In series [10] the target is Fructose-1,6-bisphosphatase 1 (Homo sapiens, UniProt P09467, C282S). Description: Covalent inhibition of FBPase C281S mutant (unknown origin) measured upto 45 mins by UV-visible spectrometry analysis.
Chain of Fructose-1,6-bisphosphatase 1 (Homo sapiens, UniProt P09467, C282S) (P09467 2-338 C282S limits assumed): as the sequence (P09467 2-338 Y259A limits assumed) above, with A258Y, C281S counted along it
Series [11] is described as follows: Toxicity in intraperitonially dosed db/db mouse at high dose by long-term safety study. It is filed as organism-based. The settings on record: in vivo, ip.
A short description of series [12]: Toxicity in intraperitonially dosed ICR mouse at high dose by long-term safety study. Format: organism-based. The settings on record: in vivo, ip.
Series [13] concerns the target T1, Fructose-1,6-bisphosphatase 1. Description: Covalent inhibition of FBPase WT (unknown origin) measured 15 to 45 mins by UV-visible spectrometry analysis.
Series [14] deals with Fructose-1,6-bisphosphatase 1 (Homo sapiens, UniProt P09467, C39S). Description: Covalent inhibition of FBPase C38S mutant (unknown origin) measured upto 45 mins by UV-visible spectrometry analysis.
Chain of Fructose-1,6-bisphosphatase 1 (Homo sapiens, UniProt P09467, C39S) (P09467 2-338 C39S limits assumed): as the sequence (P09467 2-338 Y259A limits assumed) above, with C38S, A258Y counted along it
The subject of series [15] is Mus musculus. The series is described as follows: Suppression of blood glucose concentration in 12 hrs fasted db/db mouse model at 25 mg/kg, ip measured upto 120 mins after oral administration of glucose at 2 g/kg for 60 min by oral glucose tolerance test. Format: functional.
The target of series [16] is Fructose-1,6-bisphosphatase 1 (Homo sapiens, UniProt P09467, C93S). Description: Covalent inhibition of FBPase C92S mutant (unknown origin) measured upto 45 mins by UV-visible spectrometry analysis.
Chain of Fructose-1,6-bisphosphatase 1 (Homo sapiens, UniProt P09467, C93S) (P09467 2-338 C93S limits assumed): as the sequence (P09467 2-338 Y259A limits assumed) above, with C92S, A258Y counted along it
Series [17] addresses Fructose-1,6-bisphosphatase 1 (Homo sapiens, UniProt P09467, S125A). The series is described as follows: Covalent inhibition of FBPase S124A mutant (unknown origin) measured upto 45 mins by UV-visible spectrometry analysis.
A short description of series [18]: Inhibition of gluconeogenesis in C57BLKS mouse primary hepatocytes assessed as inhibition of glucose output at 100 umol/L measured after 6 hrs relative to control. The settings on record: Hepatocyte, dose 100 µmol/L. It is filed as functional.
The target of series [19] is Fructose-1,6-bisphosphatase 1 (Homo sapiens, UniProt P09467, C180S). The series is described as follows: Covalent inhibition of FBPase C179S mutant (unknown origin) measured upto 45 mins by UV-visible spectrometry analysis.
Chain of Fructose-1,6-bisphosphatase 1 (Homo sapiens, UniProt P09467, C180S) (P09467 2-338 C180S limits assumed): as the sequence (P09467 2-338 Y259A limits assumed) above, with C179S, A258Y counted along it
Series [20] has as its target Fructose-1,6-bisphosphatase 1 (Homo sapiens, UniProt P09467, C129S). The series is described as follows: Covalent inhibition of FBPase C128S mutant (unknown origin) measured upto 45 mins by UV-visible spectrometry analysis.
Series [21] has as its target T1, Fructose-1,6-bisphosphatase 1. Description: Covalent inhibition of FBPase R243A mutant (unknown origin) measured upto 45 mins by UV-visible spectrometry analysis.
The target in series [22] is Fructose-1,6-bisphosphatase 1 (Homo sapiens, UniProt P09467, C117S). The series is described as follows: Covalent inhibition of FBPase C116S mutant (unknown origin) measured upto 45 mins by UV-visible spectrometry analysis.
Chain of Fructose-1,6-bisphosphatase 1 (Homo sapiens, UniProt P09467, C117S) (P09467 2-338 C117S limits assumed): as the sequence (P09467 2-338 Y259A limits assumed) above, with C116S, A258Y counted along it
The subject of series [23] is Mus musculus. Description: Hypoglycemic activity in 2 hrs fasted ICR mouse model assessed as reduction in blood glucose AUC (0 to 120 mins) at 12.5 mg/kg, ip pretreated for 60 mins followed by glucose challenge and measured up to 120 mins by oral glucose tolerance test. The settings on record: 3 h, time 180 min. Format: functional.
For series [24], the target named is Fructose-1,6-bisphosphatase 1 (Homo sapiens, UniProt P09467, D128A). Description: Covalent inhibition of FBPase D127A mutant (unknown origin) measured upto 45 mins by UV-visible spectrometry analysis.
Chain of Fructose-1,6-bisphosphatase 1 (Homo sapiens, UniProt P09467, D128A) (P09467 2-338 D128A limits assumed): as the sequence (P09467 2-338 Y259A limits assumed) above, with D127A, A258Y counted along it
Series [25] can be described thus: In vivo inhibition of FBPase activity in 12 hrs fasted ICR mouse liver assessed as reduction in blood glucose level at 25 mg/kg, ip administered for 4 hrs and measured after 4 hrs. The settings on record: time 8 hrs. It is filed as functional.
Series [26] relates to Mus musculus. Description: Hypoglycemic activity in 2 hrs fasted ICR mouse model assessed as reduction in blood glucose AUC (0 to 120 mins) at 25 mg/kg, ip pretreated for 60 mins followed by glucose challenge and measured up to 120 mins by oral glucose tolerance test. It is filed as functional. The settings on record: 3 h, time 180 min.
Series [27] deals with Mus musculus. Description: Glucose lowering activity in 12 hrs fasting normoglycemic ICR mouse assessed as reduction in blood glucose level at 50 mg/kg, ip measured upto 8 hrs by glucometer. It is filed as functional. The settings on record: time hrs <=8.

The term IC50 denotes the concentration needed to halve the response being measured. By inhibition in vivo is commonly meant the relative decrease from the control value, in per cent. As usually defined, the inhibition is how much of the control response was suppressed.

Each structure is given as a SMILES string. A value given as a limit tells only on which side of the number the result lay.

Chain of Fructose-1,6-bisphosphatase 1 (Homo sapiens, UniProt P09467, S125A) (P09467 2-338 S125A limits assumed): as the sequence (P09467 2-338 Y259A limits assumed) above, with S124A, A258Y counted along it
Chain of Fructose-1,6-bisphosphatase 1 (Homo sapiens, UniProt P09467, N126A) (P09467 2-338 N126A limits assumed): as the sequence (P09467 2-338 Y259A limits assumed) above, with N125A, A258Y counted along it
Chain of Fructose-1,6-bisphosphatase 1 (Homo sapiens, UniProt P09467, C129S) (P09467 2-338 C129S limits assumed): as the sequence (P09467 2-338 Y259A limits assumed) above, with C128S, A258Y counted along it
Chain of Fructose-1,6-bisphosphatase 1 (Homo sapiens, UniProt P09467, R255A) (P09467 2-338 R255A limits assumed): as the sequence (P09467 2-338 Y259A limits assumed) above, with R254A, A258Y counted along it

`c1nnc(SSc2nncs2)s1`: the IC50 in series [1] is 560 nM; in [4], greater than 100000 nM. Also, in series [2], the inhibition in vivo at 25 mg/kg was 31%. Also, the Time in series [3] worked out at 4 h.
In the case of `c1csc(SSc2nccs2)n1`, the IC50 in series [5] was greater than 250000 nM; in series [7] it was 90 nM; in series [8] it was 3100 nM; in series [9] it was 630 nM; in series [10], 180 nM; in [1], 220 nM. Besides, the IC50 in series [13] is 270 nM; in series [14], 310 nM; in [16] it was 130 nM; in series [17], 460 nM; in series [19] it was 160 nM; in [20], greater than 500000 nM. The IC50 in series [21] stood at 270 nM; in [22], 190 nM; in series [24], 180 nM; in [4], 75100 nM. Further, the Activity result in [6] is “Non-Toxic”; in series [11], “Toxic”; in series [12], “Toxic”. The inhibition in vivo at 25 mg/kg in series [2] stood at 26%; in series [15], 10.4%; in series [25], 57%; in series [26] it was 22.7%. The Time in [3] is 4 h. Also, the inhibition at 100 µM in series [18] was 90%. For the same compound, the inhibition in vivo at 12.5 mg/kg in [23] was 24.5%.
Take `Clc1ccccc1SSc1nccs1`: the figures for the IC50 in series [1] and in series [4] were 600 nM and 64500 nM, respectively. Besides, the Time in series [3] came out at 6 h. For the same compound, in series [27], the inhibition in vivo at 50 mg/kg came to 50%.
The like results for `C1Cc2nc(SSc3nc4c(s3)CCC4)sc2C1` were, in that order, 470 nM, greater than 100000 nM, 8 h and 23%.
The matching figures for `S=C(SSC(=S)n1cccc1)n1cccc1`: 130 nM, greater than 100000 nM, 6 h and 35%.
On to `Nc1nnc(SSc2nnc(N)s2)s1`, for which the results for the IC50 in series [1] and in series [4] were 490 nM and greater than 100000 nM, respectively. For the same compound, the inhibition in vivo at 50 mg/kg in series [27] is 31%.
Take `c1ccc2sc(SSc3nc4ccccc4s3)nc2c1` [BENZOTHIAZYL DISULFIDE]: the IC50 in [1] is 310 nM; in [4], greater than 100000 nM. For the same compound, in series [3], the Time came out at 6 h. Moreover, in [27], the inhibition in vivo at 50 mg/kg came to 54%.
The like results for `C1CCc2sc(SSc3nc4c(s3)CCCC4)nc2C1` were, in that order, 300 nM, 20100 nM, 6 h and 32%.
In series [1], `CN(C(=S)SSC(=S)N(C)c1ccccc1)c1ccccc1` gave an IC50 greater than 10000 nM.
Same read-out and setting: next, `CCN(CC)C(=S)SCSC(=S)N(CC)CC`: greater than 10000 nM.
Turning to `CCSSc1nccs1`, in series [1], 5390 nM corresponded to half-maximal inhibition (IC50).
The same measure, in the same setting: in the case of `CC(C)N(C(=S)SSC(=S)N(C(C)C)C(C)C)C(C)C` it was greater than 10000 nM.

For the origin of these results see ChEMBL document CHEMBL4706520, “Development of disulfide-derived fructose-1,6-bisphosphatase (FBPase) covalent inhibitors for the treatment of type 2 diabetes” (Eur J Med Chem, 2020).
